Source: ChEMBL document CHEMBL5653615 (J Biol Chem, 2013)

What was measured:
[1] = target: Protein kinase C eta type (Homo sapiens) (UniProt P24723); assay: Inhibition of human PKCeta at 18.6 nM by HotSpot assay relative to control
[2] = target: T1, Calcium/calmodulin-dependent protein kinase type IV (Homo sapiens) (UniProt Q16566); assay: Inhibition of human CAMK4 at 18.6 nM by HotSpot assay relative to control
T1 sequence (whole entry): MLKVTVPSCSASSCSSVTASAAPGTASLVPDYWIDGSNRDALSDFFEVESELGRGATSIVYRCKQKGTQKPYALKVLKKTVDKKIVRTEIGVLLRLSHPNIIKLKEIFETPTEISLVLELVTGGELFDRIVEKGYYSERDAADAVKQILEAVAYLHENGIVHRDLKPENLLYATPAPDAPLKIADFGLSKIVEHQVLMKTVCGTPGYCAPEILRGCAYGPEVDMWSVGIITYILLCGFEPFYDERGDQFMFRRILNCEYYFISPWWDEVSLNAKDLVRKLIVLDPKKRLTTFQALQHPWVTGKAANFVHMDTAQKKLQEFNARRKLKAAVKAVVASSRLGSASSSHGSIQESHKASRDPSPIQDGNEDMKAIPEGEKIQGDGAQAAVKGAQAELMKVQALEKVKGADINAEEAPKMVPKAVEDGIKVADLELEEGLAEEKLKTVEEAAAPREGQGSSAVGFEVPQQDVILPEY

[3] = target: Serine/threonine-protein kinase Nek4 (Homo sapiens) (UniProt P51957); assay: Inhibition of human NEK4 at 18.6 nM by HotSpot assay relative to control
[4] = target: Tyrosine-protein kinase HCK (Homo sapiens) (UniProt P08631); assay: Inhibition of human HCK at 18.6 nM by HotSpot assay relative to control
[5] = target: T2, Ephrin type-A receptor 3 (Homo sapiens) (UniProt P29320); assay: Inhibition of human EPHA3 at 18.6 nM by HotSpot assay relative to control
T2 sequence (whole entry): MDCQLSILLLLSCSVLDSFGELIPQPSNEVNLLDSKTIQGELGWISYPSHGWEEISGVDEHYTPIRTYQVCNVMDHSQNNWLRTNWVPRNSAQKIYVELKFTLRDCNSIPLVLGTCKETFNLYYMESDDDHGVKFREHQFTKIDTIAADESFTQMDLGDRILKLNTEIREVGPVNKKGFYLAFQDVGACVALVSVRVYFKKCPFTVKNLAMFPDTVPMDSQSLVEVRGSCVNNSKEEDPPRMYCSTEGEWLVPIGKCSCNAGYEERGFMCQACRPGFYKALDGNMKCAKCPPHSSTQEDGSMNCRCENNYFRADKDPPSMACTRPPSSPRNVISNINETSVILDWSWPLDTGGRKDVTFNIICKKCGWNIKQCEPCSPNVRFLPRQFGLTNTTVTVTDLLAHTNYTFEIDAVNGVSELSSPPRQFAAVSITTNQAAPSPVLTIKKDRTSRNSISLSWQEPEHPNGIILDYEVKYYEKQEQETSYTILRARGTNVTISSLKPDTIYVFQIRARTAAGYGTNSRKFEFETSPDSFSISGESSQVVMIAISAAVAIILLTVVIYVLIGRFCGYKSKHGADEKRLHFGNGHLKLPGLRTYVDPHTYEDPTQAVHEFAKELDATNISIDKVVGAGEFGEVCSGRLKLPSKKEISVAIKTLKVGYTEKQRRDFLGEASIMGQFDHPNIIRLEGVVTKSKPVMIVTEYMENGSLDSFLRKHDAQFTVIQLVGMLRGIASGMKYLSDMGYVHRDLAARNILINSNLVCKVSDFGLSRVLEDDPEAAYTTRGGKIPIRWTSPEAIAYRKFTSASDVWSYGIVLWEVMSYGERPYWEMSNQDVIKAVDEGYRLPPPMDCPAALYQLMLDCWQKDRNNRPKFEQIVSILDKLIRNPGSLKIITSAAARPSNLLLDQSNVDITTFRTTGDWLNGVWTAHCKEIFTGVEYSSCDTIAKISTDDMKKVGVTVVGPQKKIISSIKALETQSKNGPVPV

[6] = target: Serine/threonine-protein kinase 16 (Homo sapiens) (UniProt O75716); assay: Inhibition of human STK16 at 18.6 nM by HotSpot assay relative to control
[7] = target: Glycogen synthase kinase-3 beta (Homo sapiens) (UniProt P49841); assay: Inhibition of human GSK3b at 18.6 nM by HotSpot assay relative to control
[8] = target: T3, Mitogen-activated protein kinase 12 (Homo sapiens) (UniProt P53778); assay: Inhibition of human P38g at 18.6 nM by HotSpot assay relative to control
T3 sequence (whole entry): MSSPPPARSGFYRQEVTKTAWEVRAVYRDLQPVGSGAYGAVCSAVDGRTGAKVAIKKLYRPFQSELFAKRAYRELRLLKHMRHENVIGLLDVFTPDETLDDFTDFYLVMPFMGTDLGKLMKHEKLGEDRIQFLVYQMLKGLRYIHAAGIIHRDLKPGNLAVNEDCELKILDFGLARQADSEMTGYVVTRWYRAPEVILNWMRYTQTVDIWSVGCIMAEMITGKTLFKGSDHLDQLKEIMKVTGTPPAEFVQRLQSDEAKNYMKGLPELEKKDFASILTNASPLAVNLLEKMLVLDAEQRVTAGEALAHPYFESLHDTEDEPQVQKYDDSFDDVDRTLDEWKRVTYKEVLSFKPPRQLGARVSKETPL

[9] = target: Serine/threonine-protein kinase 26 (Homo sapiens) (UniProt Q9P289); assay: Inhibition of human MST4 at 18.6 nM by HotSpot assay relative to control
[10] = target: Serine/threonine-protein kinase 33 (Homo sapiens) (UniProt Q9BYT3); assay: Inhibition of human STK33 at 1.82 nM by HotSpot assay relative to control
[11] = target: Serine/threonine-protein kinase Nek6 (Homo sapiens) (UniProt Q9HC98); assay: Inhibition of human NEK6 at 1.82 nM by HotSpot assay relative to control
[12] = target: cAMP-dependent protein kinase (PKA) (Homo sapiens) (UniProt P22694+P17612+P22612); assay: Inhibition of human PKA at 1.82 nM by HotSpot assay relative to control; format: protein assay
[13] = target: T4, cAMP-dependent protein kinase catalytic subunit PRKX (Homo sapiens) (UniProt P51817); assay: Inhibition of human PRKX at 1.82 nM by HotSpot assay relative to control
T4 sequence (whole entry): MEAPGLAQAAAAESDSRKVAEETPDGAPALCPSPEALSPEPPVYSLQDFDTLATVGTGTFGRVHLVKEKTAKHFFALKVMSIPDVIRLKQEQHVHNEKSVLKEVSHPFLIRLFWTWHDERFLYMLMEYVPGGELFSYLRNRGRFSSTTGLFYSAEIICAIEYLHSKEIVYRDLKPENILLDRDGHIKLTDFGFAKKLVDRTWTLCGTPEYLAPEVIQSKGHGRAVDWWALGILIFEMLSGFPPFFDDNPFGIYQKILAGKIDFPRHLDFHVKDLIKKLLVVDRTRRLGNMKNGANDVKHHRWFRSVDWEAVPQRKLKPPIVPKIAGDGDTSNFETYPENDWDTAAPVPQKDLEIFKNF

Chain of Serine/threonine-protein kinase Nek4 (Homo sapiens) (P51957 whole entry, looked up): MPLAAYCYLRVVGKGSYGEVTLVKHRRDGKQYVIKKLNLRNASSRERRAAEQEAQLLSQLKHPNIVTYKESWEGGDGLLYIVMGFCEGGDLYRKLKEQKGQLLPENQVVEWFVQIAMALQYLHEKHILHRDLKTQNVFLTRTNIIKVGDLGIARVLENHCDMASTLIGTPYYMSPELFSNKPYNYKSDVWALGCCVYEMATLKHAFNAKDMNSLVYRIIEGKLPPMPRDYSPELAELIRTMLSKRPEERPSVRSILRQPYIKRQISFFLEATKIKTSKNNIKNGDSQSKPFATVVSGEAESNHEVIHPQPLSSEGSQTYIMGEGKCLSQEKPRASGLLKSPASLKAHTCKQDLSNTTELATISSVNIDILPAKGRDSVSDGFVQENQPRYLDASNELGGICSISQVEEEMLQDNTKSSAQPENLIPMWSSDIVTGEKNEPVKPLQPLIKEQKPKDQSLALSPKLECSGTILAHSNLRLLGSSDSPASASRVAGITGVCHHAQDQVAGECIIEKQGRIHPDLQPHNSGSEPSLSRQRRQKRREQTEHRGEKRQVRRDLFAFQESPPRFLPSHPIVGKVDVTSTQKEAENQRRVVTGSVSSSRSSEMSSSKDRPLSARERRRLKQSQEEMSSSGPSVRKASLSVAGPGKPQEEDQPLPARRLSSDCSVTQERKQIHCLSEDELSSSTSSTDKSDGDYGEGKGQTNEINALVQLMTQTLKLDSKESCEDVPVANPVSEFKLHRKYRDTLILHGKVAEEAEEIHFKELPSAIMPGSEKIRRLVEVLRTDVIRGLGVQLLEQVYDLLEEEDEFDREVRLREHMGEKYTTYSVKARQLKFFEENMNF
Chain of Protein kinase C eta type (Homo sapiens) (P24723 whole entry): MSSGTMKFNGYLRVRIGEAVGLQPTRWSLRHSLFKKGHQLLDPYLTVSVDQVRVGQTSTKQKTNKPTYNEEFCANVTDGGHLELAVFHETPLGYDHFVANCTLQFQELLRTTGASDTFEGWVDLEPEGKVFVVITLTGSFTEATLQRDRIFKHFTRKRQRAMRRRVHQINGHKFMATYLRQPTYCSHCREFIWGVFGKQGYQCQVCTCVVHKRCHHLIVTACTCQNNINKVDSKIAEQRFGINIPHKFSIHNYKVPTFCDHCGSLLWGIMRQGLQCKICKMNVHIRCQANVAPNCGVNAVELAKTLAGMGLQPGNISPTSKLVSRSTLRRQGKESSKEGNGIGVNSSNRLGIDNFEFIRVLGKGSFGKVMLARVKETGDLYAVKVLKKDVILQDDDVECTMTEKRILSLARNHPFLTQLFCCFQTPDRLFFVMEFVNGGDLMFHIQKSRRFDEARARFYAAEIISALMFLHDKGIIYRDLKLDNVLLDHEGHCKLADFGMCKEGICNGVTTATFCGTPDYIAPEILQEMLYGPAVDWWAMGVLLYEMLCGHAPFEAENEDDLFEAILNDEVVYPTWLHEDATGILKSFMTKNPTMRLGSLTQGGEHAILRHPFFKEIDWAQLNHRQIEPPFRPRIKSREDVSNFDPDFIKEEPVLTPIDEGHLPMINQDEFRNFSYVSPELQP
Chain of Tyrosine-protein kinase HCK (Homo sapiens) (P08631 2-526 limits assumed): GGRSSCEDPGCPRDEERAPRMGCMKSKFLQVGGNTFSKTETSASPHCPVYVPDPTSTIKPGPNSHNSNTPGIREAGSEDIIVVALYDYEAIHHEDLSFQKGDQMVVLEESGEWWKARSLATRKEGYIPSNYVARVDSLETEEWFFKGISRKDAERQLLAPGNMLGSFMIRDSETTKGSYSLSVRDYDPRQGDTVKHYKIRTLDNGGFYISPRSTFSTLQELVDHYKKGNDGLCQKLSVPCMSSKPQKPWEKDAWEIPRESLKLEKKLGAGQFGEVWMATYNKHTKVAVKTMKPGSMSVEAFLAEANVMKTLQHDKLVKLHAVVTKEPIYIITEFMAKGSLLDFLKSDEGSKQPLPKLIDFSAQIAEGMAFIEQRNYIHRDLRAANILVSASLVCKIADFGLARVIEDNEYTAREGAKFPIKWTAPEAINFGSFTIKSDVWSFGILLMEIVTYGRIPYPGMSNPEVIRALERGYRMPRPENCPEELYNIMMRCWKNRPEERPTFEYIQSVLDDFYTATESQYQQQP
Chain of Serine/threonine-protein kinase Nek6 (Homo sapiens) (Q9HC98 whole entry): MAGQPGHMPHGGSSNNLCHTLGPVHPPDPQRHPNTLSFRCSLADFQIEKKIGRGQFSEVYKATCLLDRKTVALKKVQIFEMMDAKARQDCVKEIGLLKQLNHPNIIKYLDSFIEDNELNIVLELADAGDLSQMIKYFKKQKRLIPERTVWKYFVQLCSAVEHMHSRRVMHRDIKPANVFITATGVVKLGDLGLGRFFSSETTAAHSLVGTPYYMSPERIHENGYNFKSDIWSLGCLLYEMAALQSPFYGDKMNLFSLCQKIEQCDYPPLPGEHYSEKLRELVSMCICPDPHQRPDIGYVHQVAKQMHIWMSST
Chain of Serine/threonine-protein kinase 16 (Homo sapiens) (O75716 whole entry): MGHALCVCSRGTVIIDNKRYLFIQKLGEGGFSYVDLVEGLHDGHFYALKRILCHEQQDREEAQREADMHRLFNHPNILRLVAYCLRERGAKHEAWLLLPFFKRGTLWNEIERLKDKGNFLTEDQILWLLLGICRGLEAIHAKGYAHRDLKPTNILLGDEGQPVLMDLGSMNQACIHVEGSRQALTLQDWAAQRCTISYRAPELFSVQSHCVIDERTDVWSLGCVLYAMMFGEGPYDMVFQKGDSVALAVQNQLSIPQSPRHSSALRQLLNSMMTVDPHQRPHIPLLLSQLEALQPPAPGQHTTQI
Chain of Serine/threonine-protein kinase 26 (Homo sapiens) (Q9P289 2-416 limits assumed): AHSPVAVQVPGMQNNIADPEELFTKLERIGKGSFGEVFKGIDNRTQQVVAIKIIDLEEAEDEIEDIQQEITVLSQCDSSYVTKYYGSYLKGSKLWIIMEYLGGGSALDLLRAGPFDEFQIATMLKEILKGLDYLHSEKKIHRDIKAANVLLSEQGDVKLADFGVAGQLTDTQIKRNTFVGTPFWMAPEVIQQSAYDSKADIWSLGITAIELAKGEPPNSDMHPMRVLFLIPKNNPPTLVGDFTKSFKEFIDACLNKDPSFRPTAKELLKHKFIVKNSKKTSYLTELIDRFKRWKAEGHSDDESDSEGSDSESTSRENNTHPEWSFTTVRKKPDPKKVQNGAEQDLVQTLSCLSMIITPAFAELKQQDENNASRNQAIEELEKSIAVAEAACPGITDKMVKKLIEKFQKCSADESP
Chain of Serine/threonine-protein kinase 33 (Homo sapiens) (Q9BYT3 whole entry, looked up): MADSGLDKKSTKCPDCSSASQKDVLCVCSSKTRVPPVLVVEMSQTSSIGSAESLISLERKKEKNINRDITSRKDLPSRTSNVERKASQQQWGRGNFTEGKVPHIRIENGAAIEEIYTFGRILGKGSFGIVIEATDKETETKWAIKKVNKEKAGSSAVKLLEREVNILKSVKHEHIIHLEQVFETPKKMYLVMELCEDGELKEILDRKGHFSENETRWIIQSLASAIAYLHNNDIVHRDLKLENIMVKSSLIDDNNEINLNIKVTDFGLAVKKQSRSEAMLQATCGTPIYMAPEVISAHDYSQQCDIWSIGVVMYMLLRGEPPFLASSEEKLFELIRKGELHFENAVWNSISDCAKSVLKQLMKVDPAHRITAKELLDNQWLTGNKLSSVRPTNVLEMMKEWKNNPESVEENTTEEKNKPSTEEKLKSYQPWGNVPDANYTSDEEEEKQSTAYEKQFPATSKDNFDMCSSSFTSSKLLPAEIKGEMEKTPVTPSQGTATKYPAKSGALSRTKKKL
Chain of Glycogen synthase kinase-3 beta (Homo sapiens) (P49841 whole entry, looked up): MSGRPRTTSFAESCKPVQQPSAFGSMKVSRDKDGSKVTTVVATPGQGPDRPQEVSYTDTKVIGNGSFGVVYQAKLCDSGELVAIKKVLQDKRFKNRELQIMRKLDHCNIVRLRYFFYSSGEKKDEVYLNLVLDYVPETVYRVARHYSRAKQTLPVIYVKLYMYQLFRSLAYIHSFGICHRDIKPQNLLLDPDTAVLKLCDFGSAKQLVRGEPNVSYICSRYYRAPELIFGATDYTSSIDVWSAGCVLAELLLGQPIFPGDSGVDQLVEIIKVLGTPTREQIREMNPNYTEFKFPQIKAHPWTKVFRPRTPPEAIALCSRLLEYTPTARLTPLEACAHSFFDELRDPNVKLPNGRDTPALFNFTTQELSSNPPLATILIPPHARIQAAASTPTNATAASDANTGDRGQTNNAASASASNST

| inhibition [1] | inhibition [2] | inhibition [3] | inhibition [4] | inhibition [5] | inhibition [6] | inhibition [7] | inhibition [8] | inhibition [9] | inhibition [10] | inhibition [11] | inhibition [12] | inhibition [13] | Structure (SMILES) |
| --- | --- | --- | --- | --- | --- | --- | --- | --- | --- | --- | --- | --- | --- |
| 1.29% | 4.07% | -3.26% | 10.3% | 2.95% | -0.38% | 67.1% | -7.84% | -2.21% | – | – | – | – | C[C@]1(O)C[C@@H](c2nc(-c3ccc4ccc(-c5ccccc5)nc4c3)c3c(N)nccn32)C1 |
| – | – | – | – | – | – | – | – | – | 1.95% | 5.33% | -3.44% | 0.19% | C[C@@]1(C(=O)Nc2ccc(F)nc2)CCCN1c1nc(Nc2cc(C3CC3)n[nH]2)c2cccn2n1 |
